Laboratory results reported in US20110110920A1, “METHOD OF TREATING PERIPHERAL ARTERIAL DISEASE” (priority 2008, published 2011).

Tests used:
eNOS mRNA = eNOS mRNA in HCAE cells, RT-PCR and SYBR Green real-time PCR; assay type: cell-based, human
Method: Human coronary artery endothelial cells (HCAE cells, Lonza, Walkersville, Md.) were cultured in 5% CO2 at 37° C. in endothelial cell growth medium (EGM) supplemented with 2% fetal bovine serum and Single Quot supplements (Clonetics, San Diego, Calif.; containing epidermal growth factor, hydrocortisone, vascular endothelial growth factor, fibroblast growth factor, insulin growth factor, ascorbic acid, heparin, gentamycin, and amphotericin B). Cells were used between passages 4 and 6 for these studies. HCAE cells were plated at a density of 50,000 cells per well in 12-well plates and were grown for 3 days to reach confluency. […] Cells were then incubated in normoxic or 1% hypoxic conditions for the indicated times. […] For RNA extraction, HCAE cells were cultured in 6-well plates.
Total RNA was isolated using an Ambion isolation kit as described by the manufacturer.
RT-PCR for eNOS was performed by Ready-to-Go RT-PCR Beads (Amersham Biosciences) using a two-step protocol. […]
Samples were coded to provide blinded analysis. […] Quantitative PCR amplifications were done using 2 μl of cDNA in a total volume of 25 μl using SYBR green probes in the SYBR Green PCR Master Mix (ABI). […] The reverse-transcribed cDNA sample cycle threshold values were determined from triplicate samples and normalized to the 18S “housekeeping” gene.

eNOS [1] = test: eNOS expression and S1177 phosphorylation in HCAE cells, western blot; assay type: cell-based, human; settings: 24 h
Method: (§1) Human coronary artery endothelial cells (HCAE cells, Lonza, Walkersville, Md.) were cultured in 5% CO2 at 37° C. in endothelial cell growth medium (EGM) supplemented with 2% fetal bovine serum and Single Quot supplements (Clonetics, San Diego, Calif.; containing epidermal growth factor, hydrocortisone, vascular endothelial growth factor, fibroblast growth factor, insulin growth factor, ascorbic acid, heparin, gentamycin, and amphotericin B). Cells were used between passages 4 and 6 for these studies. HCAE cells were plated at a density of 50,000 cells per well in 12-well plates and were grown for 3 days to reach confluency. […] Cells were then incubated in normoxic or 1% hypoxic conditions for the indicated times.
(§2) The cell lysates were subjected to SDS-PAGE in a 10% polyacrylamide gel and transferred to a nitrocellulose membrane (0.2-μm, Invitrogen). After blocking with 5% milk, the membrane was incubated overnight at 4° C. with primary antibodies against phospho-eNOS (Ser 1177) and eNOS (Cell Signaling Technology, Beverly, Mass.), human type-1 arginase (clone 9C5) (Cell Sciences, Canton, Mass.), or GAPDH (Santa Cruz Biotechnology, Santa Cruz, Calif.). HRP-conjugated anti-mouse or anti-rabbit antibodies (Cell Signaling Technology) were used as secondary antibodies (HRP, horseradish peroxidase). […]

arginase 1 = test: Arginase 1 expression in HCAE cells with or without TNFα, western blot; assay type: cell-based, human; settings: TNFα treatment
Method: as §1, §2

eNOS [2] = test: VEGF-induced activation of eNOS in HCAE cells, western blot; assay type: cell-based, human; settings: normoxic HCAE cells, VEGF 50 ng/ml, 1 minute
Text: The membrane was re-probed with anti-GAPDH (glyceraldehyde-3-phosphate dehydrogenase) antibody to show equal protein loading.

[3] = system: Human coronary artery endothelial (HCAE) cells; test: Endothelial cell invasion through Matrigel toward VEGF; assay type: cell-based; settings: normoxic or hypoxic, VEGF 10 ng/ml, no TP508
Method: Endothelial cell invasion assays were performed using BD BioCoat™ Angiogenesis System (BD Bioscience, Bedford, Mass.) which utilizes FluoroBlok inserts coated with BD Matrigel Matrix (BD Bioscience, Bedford, Mass.). […] Endothelial cell invasion was performed in normoxic or hypoxic (1% O2) conditions. After 22 hours of incubation, cells were labeled post-invasion with Calcein AM and measured by detecting the fluorescence of the cells that migrated to the underside of insert membrane.

[4] = system: Human Lung Microvascular Endothelial Cells (HLME); test: Survival of serum-deprived HLME cells; assay type: cell-based; settings: serum-deprivation
[5] = system: Human coronary artery endothelial (HCAE) cells; test: Transmembrane migration of endothelial cells toward VEGF (FluoroBlok inserts); assay type: cell-based; settings: hypoxic, VEGF 10 ng/ml as chemoattractant, 22 h
Method: Transmembrane cell migration assays were performed using BD FluoroBlok inserts (BD Bioscience, Bedford, Mass.) as described by the vendor. […] (V) or medium alone (C) was added to the lower chamber of the insert plate as a chemoattractant. Endothelial migration was performed in normoxic or 1% hypoxic conditions. After a 22-hour incubation, cells were labeled post-migration with Calcein AM and measured by detecting the fluorescence of the cells that migrated to the underside of the insert membrane.

VEGF mRNA = VEGF mRNA expression in HCMVE cells, real-time PCR; assay type: cell-based, human; settings: VEGF 10 ng/ml, 24 h
Text: Data from one experiment performed in triplicate are shown in FIG. 11 as mean±SD. *p<0.01 compared to control (C) cells in normoxia. ^#p<0.01 compared to control (C) cells in hypoxia.

Substance	eNOS mRNA expression (RT-PCR) (eNOS mRNA; 6 h stimulation, 25 or 30 cycles, relative to controls)	decrease of eNOS mRNA level (eNOS mRNA; 24 h, real-time PCR) [%]	reduction of eNOS expression relative to normoxic controls (eNOS [1]) [%]	expression of arginase 1 (ARG1) relative to control cultures (arginase 1)	phosphorylation of eNOS on serine 1177, maximum (eNOS [2]) [fold]	invasion of control endothelial cells through Matrigel toward human VEGF [3]	cell survival, agent alone [4]	migration of control endothelial cells relative to media control cells [5] [%]	VEGF mRNA in hypoxic cells (VEGF mRNA; hypoxic)	decrease of VEGF mRNA expression compared to control cells (VEGF mRNA; normoxic) [fold]
TNFα	drastically decreased	~80	45	significant increase						
VEGF					2	not stimulated	increased survival at lower levels	~150	no effect, or decreased	2
